Broadly, the EC50 is the concentration giving half of the maximal effect.

One assay relates to tubulin. Nature of the assay: Fluorescence-based microtubule polymerization assay (MPA). In kind it is biochemical. As to conditions: mean percentage of paclitaxel or vinblastine activity; 0.75-10 micromolar. The method in brief: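 Tubulin polymerization was followed by fluorescence (ex 360/em 405 nm) in a commercial kit with 1 mg/ml BSA added to every assay, glycerol being omitted for paclitaxel conjugates. Parent drugs and conjugates were tested at 0.75, 1.5, 3 and 10 micromolar final. Curves from the linear range of the dose responses were compared.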

For assay [1], the system named is HT-29 colorectal carcinoma. Nature of the assay: Cytotoxicity assay (monolayer), HT-29. As to conditions: Homo sapiens. In kind it is cell-based. On the procedure:
Statistical Assoc., 81, 991-999, 1986.
Monolayer assays with tumor cell lines (MCF-7 breast carcinoma and HT-29 colorectal carcinoma from ATCC) were carried out in triplicate in 96-well plates with RPMI1640 medium containing 5% fetal bovine serum, 100 U/ml penicillin and 100 μg/ml streptomycin. Normal human foreskin fibroblasts (HFF #CC-2509) were from Cambrex and were cultured in FGM-2 medium. Exponentially growing cells (5,000 MCF-7 or HT-29; 1,500 HFF) were plated in 100 μl medium and incubated overnight (5% CO2, 37° C.). Compounds (20 pM to 20 μM final concentration, 6-8 doses) and vehicle (DMSO) controls were added and the incubation was continued for an additional 72 hours. Final cell density was determined by incubating cultures with 25 μl AlamarBlue reagent (BioSource, Camarillo, Calif.) for 4 hours, followed by determination of fluorescence at excitation of 544 nm and emission of 590 nm with a SpectroMax Gemini EM fluorescence plate reader (Molecular Devices, Sunnyvale, Calif.). EC50 values were generated from dose-response curves by a 4-parameter method using Softmax PRO software. Mean EC50s (±SD) represent the average of all tests carried out for all lots of a given compound. […] Statistical Assoc., 81, 991-999 (1986).

A further assay has as its system HUVEC. Put plainly: Cytotoxicity assay (monolayer), HUVEC. Type of assay: cell-based. As to conditions: Homo sapiens, read-out: HUVEC (EC50 Ave) ML.

Read-outs that look alike come from different tables or passages of the source.

For `CC(=O)O[C@H]1C(=O)[C@@]2(C)[C@H]([C@H](OC(=O)c3ccccc3)[C@]3(O)C[C@H](OC(=O)[C@H](O)[C@@H](NC(=O)c4ccccc4)c4ccccc4)C(C)=C1C3(C)C)[C@]1(OC(C)=O)CO[C@@H]1C[C@@H]2O` [Paclitaxel], the “Ave. MPA Act” value in the assay with tubulin is listed as “C (C>100)”. Moreover, the EC50 in assay [1] (mean ± SD, read-out: HT-29 Monolayer EC50) is 5 ± 3 nM; in assay [1] (monolayer, 72 hours, AlamarBlue, read-out: HT29 (EC50 Ave) ML), < 100 nM; in the assay with HUVEC it was < 100 nM.
